From patent US20070099887A1, “Photodynamic therapy for the treatment of prostatic conditions” (priority 2003, published 2007) come the findings set out here.

The subject of this series is prostate. Briefly: Photodynamic therapy of the canine prostate after intraprostatic injection of QLT0074 and transurethral 690 nm light. Format: in vivo, dogs. How it is done:
Eight mature, intact, mixed-breed dogs were premedicated with butorphanol (0.4 mg per kilogram of body weight), acepromazine (0.1 mg/kg), and atropine (0.4 mg/kg), all given by intramuscular injection. Anesthesia was induced with intravenous thiopental sodium (8 mg per 0.4536 kilograms of body weight) and maintained with inhaled isoflurane and oxygen (dosage as required for anesthetic effect). QLT0074 for injection (A-EA6 in U.S. Pat. No. 5,929,105) was reconstituted with Water for Injection to give a stock concentration of 2.0 mg/ml and then diluted with 5% Dextrose in water to a concentration 0.2 mg/ml. Injections of the drug were then delivered to the prostate using a commercially available transurethral injection device (InjecTx™, San Jose, Calif., USA). Two injections of 0.5 ml were given to each left lobe of the prostate and 2 injections of 1.0 ml were given to each right lobe of the prostate. The activation-energy delivery device used comprised: • a cylindrical fibre optic with a 200 μm diameter core, a 25 mm long diffuser, and a power rating of 175 mW/cm (maximum power load, 437.5 mW), • a reflective-cap fibre-centering balloon catheter with a 20 mm treatment window supplied with a guidewire for positioning the device in the urethra, and • a 3 W 690 nm red-light diode laser (AOC, South Plainfield, N.J., USA). The treatment assembly was positioned in the urethra using ultrasonic guidance. Ultrasound was also used to position the needles for four […] intraprostatic injections (two per lobe separated by longitudinally by 1 cm). Each injection was at a depth of between 8 and 12 mm into the prostate. The activation energy was delivered 15 minutes after the last injection. A dose of either 25 J/cm^2, 50 J/cm^2, or 100 J/cm^2 was delivered. […] After seven days the dogs were euthanased and the prostates were harvested.

The mark [1] stands for this setting: prostates harvested after seven days, QLT0074 0.2 mg/ml intraprostatic, injection depth 8-12 mm, 25, 50 or 100 J/cm^2.

`C=Cc1c(C)c2cc3nc(cc4[nH]c(cc5nc(cc1[nH]2)C(C)=C5CCC(=O)OCCO)c(CCC(=O)OCCO)c4C)[C@@]1(C)C3=CC=C(C(=O)OC)[C@H]1C(=O)OC` [QLT0074, Lemuteporfin]: under “dogs euthanased after seven days, QLT0074 0.2 mg/ml intraprostatic, 25, 50 or 100 J/cm^2”, the “Bowel, bladder, and prostate sizes” value is listed as “within normal ranges”. For the same compound, for the setting “mature intact mixed-breed dogs, QLT0074 0.2 mg/ml, 2 x 0.5 ml left lobe and 2 x 1.0 ml right lobe, 690 nm light 25, 50 or 100 J/cm^2 15 minutes after last injection, observed for one week”, the “Clinical appearance of the dogs during observation” value is “clinically normal”. Moreover, under setting [1], the “PDT-associated damage in the urethra” value is listed as “no significant PDT-associated damage” and the “PDT-associated tissue damage in the target tissue (prostates)” value is “evidence of PDT-associated tissue damage in the target tissue”.
